According to ChEMBL document CHEMBL1177783, “Discovery of aminopyridines substituted with benzoxazole as orally active c-Met kinase inhibitors” (Bioorg Med Chem Lett, 2010):

Columns and labels:
[1] = target: Hepatocyte growth factor receptor (Homo sapiens, UniProt P08581); assay: Inhibition of recombinant c-MET by HTRF assay
[2] = target: hERG (KCNH2) (Homo sapiens, UniProt Q12809); assay: Displacement of [3H]astemizole from human ERG expressed in HEK293 cells at 10 uM; conditions: HEK293 cells expressing human ERG, probe [3H]astemizole
[3] = Clearance in rat at 10 mg/kg, iv; type: ADME, organism-based; design: dose 10 mg/kg, route intravenous; conditions: in vivo
[4] = Cmax in rat at 10 mg/kg, po; type: ADME, organism-based; design: dose 10 mg/kg, route oral; conditions: in vivo
[5] = Oral bioavailability in rat at 10 mg/kg; type: ADME, organism-based; conditions: in vivo
[6] = Volume of distribution at steady state in rat at 10 mg/kg, iv; type: ADME, organism-based; design: dose 10 mg/kg, route intravenous; conditions: in vivo, read-out: Vdss
[7] = AUC in rat at 10 mg/kg, iv; type: ADME, organism-based; design: dose 10 mg/kg, route intravenous; conditions: plasma
[8] = AUC in rat at 10 mg/kg, po; type: ADME, organism-based; design: dose 10 mg/kg, route oral; conditions: plasma

Chain of Hepatocyte growth factor receptor (P08581 whole entry): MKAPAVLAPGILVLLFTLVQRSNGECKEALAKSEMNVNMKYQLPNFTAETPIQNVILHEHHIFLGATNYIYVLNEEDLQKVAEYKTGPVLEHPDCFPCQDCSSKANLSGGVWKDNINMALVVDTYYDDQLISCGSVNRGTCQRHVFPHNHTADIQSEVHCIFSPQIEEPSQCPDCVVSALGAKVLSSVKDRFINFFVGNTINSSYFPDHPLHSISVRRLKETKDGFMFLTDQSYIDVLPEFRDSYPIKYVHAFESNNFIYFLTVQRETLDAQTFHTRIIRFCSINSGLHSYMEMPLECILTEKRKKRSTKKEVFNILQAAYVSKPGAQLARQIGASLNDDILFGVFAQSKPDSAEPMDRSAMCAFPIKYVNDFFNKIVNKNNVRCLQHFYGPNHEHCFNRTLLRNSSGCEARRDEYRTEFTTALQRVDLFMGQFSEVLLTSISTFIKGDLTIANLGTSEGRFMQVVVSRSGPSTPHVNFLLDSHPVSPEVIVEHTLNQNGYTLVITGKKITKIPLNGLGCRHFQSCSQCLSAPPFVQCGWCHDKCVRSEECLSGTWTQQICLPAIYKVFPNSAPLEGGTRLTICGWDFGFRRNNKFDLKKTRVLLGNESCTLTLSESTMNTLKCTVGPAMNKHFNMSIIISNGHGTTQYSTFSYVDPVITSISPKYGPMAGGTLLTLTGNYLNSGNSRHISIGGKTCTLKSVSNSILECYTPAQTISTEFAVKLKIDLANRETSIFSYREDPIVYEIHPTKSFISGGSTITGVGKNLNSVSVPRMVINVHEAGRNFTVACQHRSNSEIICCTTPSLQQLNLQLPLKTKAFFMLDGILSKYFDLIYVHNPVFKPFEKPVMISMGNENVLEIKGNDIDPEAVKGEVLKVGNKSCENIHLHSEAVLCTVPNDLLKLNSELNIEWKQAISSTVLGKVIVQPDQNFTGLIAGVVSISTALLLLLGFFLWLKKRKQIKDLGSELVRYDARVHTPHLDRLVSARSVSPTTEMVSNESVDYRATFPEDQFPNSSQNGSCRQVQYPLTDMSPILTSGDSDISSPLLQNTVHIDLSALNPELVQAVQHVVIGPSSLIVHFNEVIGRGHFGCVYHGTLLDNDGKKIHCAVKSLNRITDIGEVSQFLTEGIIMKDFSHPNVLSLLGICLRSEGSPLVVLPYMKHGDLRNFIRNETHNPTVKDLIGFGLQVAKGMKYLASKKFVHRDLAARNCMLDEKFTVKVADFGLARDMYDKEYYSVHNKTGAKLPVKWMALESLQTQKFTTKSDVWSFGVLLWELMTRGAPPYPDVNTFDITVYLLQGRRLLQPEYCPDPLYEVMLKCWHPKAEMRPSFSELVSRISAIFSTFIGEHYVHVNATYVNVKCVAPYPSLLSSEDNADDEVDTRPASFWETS
Chain of hERG (KCNH2) (Q12809 whole entry): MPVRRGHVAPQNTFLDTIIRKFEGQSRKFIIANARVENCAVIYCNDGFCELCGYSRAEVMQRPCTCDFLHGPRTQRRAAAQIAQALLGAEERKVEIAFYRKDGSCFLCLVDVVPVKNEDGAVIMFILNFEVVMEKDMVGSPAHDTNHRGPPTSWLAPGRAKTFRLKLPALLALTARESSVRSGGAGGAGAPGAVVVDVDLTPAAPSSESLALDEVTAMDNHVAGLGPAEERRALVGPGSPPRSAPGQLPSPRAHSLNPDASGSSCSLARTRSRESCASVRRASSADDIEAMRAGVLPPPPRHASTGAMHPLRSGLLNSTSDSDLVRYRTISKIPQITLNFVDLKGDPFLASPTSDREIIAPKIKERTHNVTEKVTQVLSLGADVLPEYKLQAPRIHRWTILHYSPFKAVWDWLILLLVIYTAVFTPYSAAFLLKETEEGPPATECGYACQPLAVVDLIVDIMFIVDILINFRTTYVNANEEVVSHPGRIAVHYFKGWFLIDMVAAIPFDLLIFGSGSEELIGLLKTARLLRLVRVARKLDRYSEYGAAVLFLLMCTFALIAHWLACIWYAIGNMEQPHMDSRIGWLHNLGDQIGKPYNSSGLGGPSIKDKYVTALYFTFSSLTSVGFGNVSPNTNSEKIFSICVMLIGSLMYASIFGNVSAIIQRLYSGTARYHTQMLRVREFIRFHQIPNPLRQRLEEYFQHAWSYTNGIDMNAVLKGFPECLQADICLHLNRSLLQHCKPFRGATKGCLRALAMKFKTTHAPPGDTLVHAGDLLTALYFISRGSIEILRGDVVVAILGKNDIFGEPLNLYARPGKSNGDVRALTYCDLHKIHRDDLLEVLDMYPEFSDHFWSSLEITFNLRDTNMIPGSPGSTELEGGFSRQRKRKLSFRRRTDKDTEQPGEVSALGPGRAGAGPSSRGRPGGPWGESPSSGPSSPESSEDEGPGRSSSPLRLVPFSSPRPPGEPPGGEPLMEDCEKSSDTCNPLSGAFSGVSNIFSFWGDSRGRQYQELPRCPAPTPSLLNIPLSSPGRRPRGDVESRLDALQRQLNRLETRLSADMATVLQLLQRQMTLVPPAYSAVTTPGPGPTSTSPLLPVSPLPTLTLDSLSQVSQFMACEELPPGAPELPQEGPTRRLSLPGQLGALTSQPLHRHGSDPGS

Compound | IC50 [1] | further results
CCN(CC)C(=O)N1CCC(n2cc(-c3cnc(N)c(-c4nc5ccccc5o4)c3)cn2)CC1 | 357 nM | 
COC(=O)N1CCC(n2cc(-c3cnc(N)c(-c4nc5ccccc5o4)c3)cn2)CC1 | 58 nM | 
CS(=O)(=O)N1CCC(n2cc(-c3cnc(N)c(-c4nc5ccccc5o4)c3)cn2)CC1 | 371 nM | 
COCC(=O)N1CCC(n2cc(-c3cnc(N)c(-c4nc5ccccc5o4)c3)cn2)CC1 | 17 nM | 
CN(C)CC(=O)N1CCC(n2cc(-c3cnc(N)c(-c4nc5ccccc5o4)c3)cn2)CC1 | 60 nM | 
Nc1ncc(-c2ccncc2)cc1-c1nc2ccccc2o1 | 5200 nM | 
Nc1ncc(-c2cccnc2)cc1-c1nc2ccccc2o1 | > 10000 nM | 
Nc1ncc(-c2ccccc2)cc1-c1nc2ccccc2o1 | > 10000 nM | 
Cn1cc(-c2cnc(N)c(-c3nc4ccccc4o3)c2)cn1 | 2100 nM | inhibition at 10 µM [2]: 15%
Nc1ncc(-c2cnn(C3CCOCC3)c2)cc1-c1nc2ccccc2o1 | 430 nM | 
Nc1ncc(-c2cnn(C3CCNCC3)c2)cc1-c1nc2ccccc2o1 | 80 nM | 
Cn1cc(-c2cncc(-c3nc4ccccc4o3)c2)cn1 | > 10000 nM | 
CCC(=O)N1CCC(n2cc(-c3cnc(N)c(-c4nc5ccccc5o4)c3)cn2)CC1 | 7 nM | 
Nc1ncc(-c2cnn(C3CCN(C(=O)c4ccccc4)CC3)c2)cc1-c1nc2ccccc2o1 | 140 nM | 
Nc1ncc(-c2cnn(CCO)c2)cc1-c1nc2ccccc2o1 | 1300 nM | 
CC(=O)N1CCC(n2cc(-c3cnc(N)c(-c4nc5ccccc5o4)c3)cn2)CC1.Cl | 3 nM | clearance [3]: 30 mL/min/kg; Cmax [4]: 600 ng/mL; bioavailability [5]: 47%; Vd [6]: 2.4 L/kg; AUC [7]: 5600 ng·h/mL; AUC [8]: 2700 ng·h/mL
Nc1ncc(-c2cnn(C3CCN(C(=O)CO)CC3)c2)cc1-c1nc2ccccc2o1 | 26 nM | 
c1ccc2oc(-c3cncc(-c4cnn(C5CCNCC5)c4)c3)nc2c1 | > 10000 nM | 
CNc1ncc(-c2cnn(C)c2)cc1-c1nc2ccccc2o1 | > 10000 nM | 
Cn1cc(-c2cnc(NCc3ccccc3)c(-c3nc4ccccc4o3)c2)cn1 | > 10000 nM | 
CNc1ncc(-c2cnn(C3CCNCC3)c2)cc1-c1nc2ccccc2o1 | > 10000 nM | 
